Test results taken from patent US7897770B2 (General Electric Company, priority 2007, dated 2011).

Target: T1, VMAT-2 (Homo sapiens, UniProt Q05940)
T1 construct: Novascreen Biosciences Corporation (contract assay provider) protocol Cat. No. 100-0751
Experiment: VMAT-2 binding affinity measurement, Novascreen protocol Cat. No. 100-0751
Details: for Ki: VMAT-2 binding affinity
Protocol: VMAT-2 binding affinity measurements were carried out by Novascreen Biosciences Corporation (Hanover, Md., USA) using protocol Cat. No. 100-0751. Novascreen, Inc. is a commercial provider of biological assays for the pharmaceutical industry.

T1 sequence (Q05940 whole entry, species assumed): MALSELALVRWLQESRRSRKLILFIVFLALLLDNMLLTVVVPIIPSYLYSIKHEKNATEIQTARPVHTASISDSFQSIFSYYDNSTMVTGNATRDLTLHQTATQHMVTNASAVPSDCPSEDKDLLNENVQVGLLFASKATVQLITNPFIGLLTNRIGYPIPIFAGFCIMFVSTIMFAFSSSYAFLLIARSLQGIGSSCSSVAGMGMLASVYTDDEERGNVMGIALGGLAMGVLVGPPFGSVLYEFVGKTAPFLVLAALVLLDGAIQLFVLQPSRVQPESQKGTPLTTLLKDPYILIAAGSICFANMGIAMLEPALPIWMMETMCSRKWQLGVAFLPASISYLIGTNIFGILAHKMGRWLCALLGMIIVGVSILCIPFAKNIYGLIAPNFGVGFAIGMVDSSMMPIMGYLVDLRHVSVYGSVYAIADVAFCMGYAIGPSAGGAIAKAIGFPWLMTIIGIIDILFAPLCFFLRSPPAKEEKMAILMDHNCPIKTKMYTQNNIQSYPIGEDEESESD

VMAT-2 binding affinity, in words | Ki [nM] | SMILES
very high binding affinity | 3.2 | COc1cc2c(cc1OC)[C@H]1C[C@@H](OCCF)[C@H](CC(C)C)CN1CC2 [Compound 22]
very high binding affinity | 6.4 | COc1cc2c(cc1OC)[C@H]1C[C@@H](OCCCF)[C@H](CC(C)C)CN1CC2 [Compound 23]
